From US8217172B2, “Solid forms of 1-ethyl-3-(5-(5-fluoropyridin-3-yl)-7-(pyrimidin-2-yl)-1H-benzo[d]imidazol-2-yl)urea” (Vertex Pharmaceuticals Incorporated, priority 2007, dated 2012)

What was measured:
Assay type in all cases: physicochemical
[1] = Solubility in various media (equilibration on a shaking bed for 24 hours, HPLC); conditions: for Solubility, Actual Conc / Solubility in 0.05M Buffers, Actual Conc: 24 h equilibration; for Solubility, Total Conc: ambient, 24 h
Protocol: (§1) Solubility: The solubility of form IA in various media was determined at ambient conditions by equilibrating aliquots of the drug powder with the solvents on a shaking bed for 24 hours. The samples were centrifuged, the saturated solutions of the drug were then separated and analyzed by HPLC. The sample volume was 100 μL and the target concentration was 10 mg/mL. The saturated solutions were diluted appropriately and analyzed by HPLC.
Solubility: Solubility of form IIC in various media was determined at ambient conditions by equilibrating aliquots of the drug powder with the solvents on a shaking bed for 24 hours. Samples were spun and the supernatant was carefully separated and analyzed by HPLC at the 24-hour timepoint using a stability-indicating method. […] Some variability may occur between lots of a particular sample.
as §1, with “Solubility” for “The solubility”, “IIIB” for “IA”, “medium” for “solvents”, “μL,” for “μL”, “mg/ml.” for “mg/mL.”

[2] = Dynamic Vapor Sorption (DVS), step isothermal study; conditions: 25° C.; for release of adsorbed water in the desorption stage: 95% to 5% RH; for moisture picked up at 95% relative humidity (RH): adsorption 5% to 95% RH; for weight gain from 5% to 95% relative humidity: step isothermic study (DVS)
Protocol: (§2) Dynamic Vapor Sorption (DVS): A step isothermal study (25° C.) was conducted on a representative sample of form IA using a VTI SGA 100 Symmetric Vapor Sorption Analyzer. An aliquot of approximately 10 mg was weighed in an open platinum dish and exposed to different levels of humidity at 25° C. Relative humidity (RH) steps were from 5% to 95% (adsorption) and from 95% to 5% in increments of 5% RH (desorption). The equilibration criterion was 0.0100 wt % change in 5 min, with a max equilibration time of 180 min. The sample picked up ˜8 wt % moisture at 95% relative humidity (RH).
as §2, with “a” for “a representative”, “form IIA” for “form IA”, “The material” for “The sample”, “up ˜11” for “up ˜8”
as §2, with “a” for “a representative”, “form IIC” for “form IA”, “The material” for “The sample”, “up ˜4” for “up ˜8”
Water Vapor Sorption analysis: Vapor Sorption analysis of a sample of form IIIB was done using a SGA-100 Vapor Sorption Analyzer (VTI, Hialeah, Fla.). A sample with weight of approximately 7-12 mg was measured isothermally at 25° C. Data was collected by Isotherm software and analyzed by Microsoft Excel with a VTI macro (VTI, Hialeah, Fla.). The sample gained about 4.6% in weight from 5 to 95% RH (25° C.).

[3] = Stability analysis (chemical stability by HPLC, physical stability by XRPD); conditions: for chemically and physically stable for at least about / chemically and physically stable for at least about (e.g. value): various storage conditions, including 40° C./75% RH (e.g., open container)
From the text: In some embodiments, less than 25% of the form of Compound 1 decomposes, in some embodiments, less than about 20%, less than about 15%, less than about 10%, less than about 5%, less than about 3%, less than about 1%, less than about 0.5% of the form of Compound 1 decomposes under the conditions specified. In some embodiments, no detectable amount of the form of Compound 1 decomposes.
In some embodiments, less than 25% of the form of Compound 1 changes into one or more different physical forms when subjected to specified conditions, In some embodiments, less than about 20%, less than about 15%, less than about 10%, less than about 5%, less than about 3%, less than about 1%, less than about 0.5% of the form of Compound 1 changes into one or more different physical forms of Compound 1 when subjected to specified conditions. In some embodiments, no detectable amount of the form of Compound 1 changes into one or more different physical forms of Compound 1.

[4] = aqueous solution, pH of about 1.6

CCNC(=O)Nc1nc2cc(-c3cncc(F)c3)cc(-c3ncccn3)c2[nH]1.CCS(=O)(=O)O [Form IIA, 1-ethyl-3-(5-(5-fluoropyridin-3-yl)-7-(pyrimidin-2-yl)-1H-benzo[d]imidazol-2-yl)urea•monoesylate]
solubility [1, 4]: > 150 mg/mL | release of adsorbed water in the desorption stage ([2]; DVS): Not all of the adsorbed water was released | moisture picked up at 95% relative humidity (RH) ([2]; DVS): ~11 wt % | weight gain from 5% to 95% relative humidity [2]: about 10% | change of solid form on storage ([3]; 40° C./75% RH for about 24 hours or for about 2 weeks): converted to form IIB

CCNC(=O)Nc1nc2cc(-c3cncc(F)c3)cc(-c3ncccn3)c2[nH]1.CCS(=O)(=O)O [Form IIB, 1-ethyl-3-(5-(5-fluoropyridin-3-yl)-7-(pyrimidin-2-yl)-1H-benzo[d]imidazol-2-yl)urea•monoesylate]
solubility [1, 4]: > 150 mg/mL

CCNC(=O)Nc1nc2cc(-c3cncc(F)c3)cc(-c3ncccn3)c2[nH]1.CCS(=O)(=O)O [Form IIC, 1-ethyl-3-(5-(5-fluoropyridin-3-yl)-7-(pyrimidin-2-yl)-1H-benzo[d]imidazol-2-yl)urea•monoesylate]
Solubility, Actual Conc ([1]; 0.1N HCl, pH 1.10, target 100 mg/ml): 105 mg/mL | Solubility, Actual Conc ([1]; 0.5% Methylcellulose (MC)/0.5% Sodium Lauryl Sulfate (SLS), pH 1.58, target 100 mg/ml): 94.8 mg/mL | Solubility, Actual Conc ([1]; 0.9% Sodium Chloride, target 100 mg/ml): 33.6 mg/mL | Solubility, Actual Conc ([1]; 1% Deoxycholic sodium salt (DOSS), pH 1.71, target 150 mg/ml): 125 mg/mL | Solubility, Actual Conc ([1]; 1% Docusate, pH 1.58, target 150 mg/ml): 159 mg/mL | Solubility, Actual Conc ([1]; 1% Pluronic F68, pH 1.57, target 150 mg/ml): 155 mg/mL | Solubility, Actual Conc ([1]; 1% Pluronic F108, pH 1.58, target 150 mg/ml): 159 mg/mL | Solubility, Actual Conc ([1]; 1% SLS, pH 1.56, target 150 mg/ml): 126 mg/mL | Solubility, Actual Conc ([1]; 1% Tween 80, pH 1.60, target 150 mg/ml): 130 mg/mL | Solubility, Actual Conc ([1]; 4% Glycerol, pH 1.59, target 150 mg/ml): 162 mg/mL | Solubility, Actual Conc ([1]; 10% Cremophor, pH 1.64, target 150 mg/ml): 137 mg/mL | Solubility, Actual Conc ([1]; 10% Polyvinyl pyrrolidone (PVP) K30, pH 1.70, target 150 mg/ml): 152 mg/mL | Solubility, Actual Conc ([1]; 10% Solutol, pH 1.61, target 150 mg/ml): 170 mg/mL | Solubility, Actual Conc ([1]; 10% Tween 80, pH 1.64, target 150 mg/ml): 144 mg/mL | Solubility, Actual Conc ([1]; 10% Vitamin E TPGS, pH 1.58, target 150 mg/ml): 138 mg/mL | Solubility in 0.05M Buffers, Actual Conc ([1]; Potassium chloride hydrochloric acid, pH 1, experimental pH 1.01): 113 mg/mL | Solubility in 0.05M Buffers, Actual Conc ([1]; Potassium phosphate monobasic-sodium hydroxide, pH 7): 48.2 mg/mL | Solubility in 0.05M Buffers, Actual Conc ([1]; Potassium phosphate monobasic-sodium hydroxide, pH 9, experimental pH 1.75): 67.0 mg/mL | Solubility, Actual Conc ([1]; Tetraglucol:Water (1:1), pH 2.08, target 50 mg/ml): 29.6 mg/mL | Solubility, Actual Conc ([1]; Water, pH 1.60, target 150 mg/ml): 152 mg/mL | solubility [1, 4]: > 150 mg/mL | Solubility, Actual Conc ([1]; pH 7 Tris Buffer, target 100 mg/ml): 30.0 mg/mL | hydrate formation ([2]; DVS, 5% to 95% RH): did not form a hydrate | release of adsorbed water in the desorption stage ([2]; DVS): All adsorbed water was released | moisture picked up at 95% relative humidity (RH) ([2]; DVS): ~4 wt % | chemically and physically stable for at least about [3]: at least 2 weeks | chemically and physically stable for at least about (e.g. value) [3]: at least 6 months

CCNC(=O)Nc1nc2cc(-c3cncc(F)c3)cc(-c3ncccn3)c2[nH]1.CCS(=O)(=O)O [Form IID, 1-ethyl-3-(5-(5-fluoropyridin-3-yl)-7-(pyrimidin-2-yl)-1H-benzo[d]imidazol-2-yl)urea•monoesylate]
solubility [1, 4]: > 150 mg/mL

CCNC(=O)Nc1nc2cc(-c3cncc(F)c3)cc(-c3ncccn3)c2[nH]1.CS(=O)(=O)O [Form IIIB, 1-ethyl-3-(5-(5-fluoropyridin-3-yl)-7-(pyrimidin-2-yl)-1H-benzo[d]imidazol-2-yl)urea•monomesylate]
Solubility, Total Conc ([1]; Captisol, 20%): 3.81 mg/mL | Solubility, Total Conc ([1]; Captisol, 30%, pH 7): 0.634 mg/mL | Solubility, Total Conc ([1]; Ethanol): 0.439 mg/mL | Solubility, Total Conc ([1]; HCl, 0.1N): 12.2 mg/mL | Solubility, Total Conc ([1]; Miglyol810): 0.0219 mg/mL | Solubility, Total Conc ([1]; Octanol): 0.0584 mg/mL | Solubility, Total Conc ([1]; PEG400): 0.729 mg/mL | Solubility, Total Conc ([1]; PluronicF108, 1%): >12.0 mg/mL | Solubility, Total Conc ([1]; PropyleneGlycol): 5.74 mg/mL | Solubility, Total Conc ([1]; SGF): >12.0 mg/mL | Solubility, Total Conc ([1]; SIF): 0.0284 mg/mL | Solubility, Total Conc ([1]; SodiumLaurylSulfate, 1%): 0.623 mg/mL | Solubility, Total Conc ([1]; TrisBuffer, pH 7): 0.0276 mg/mL | Solubility, Total Conc ([1]; Vitamin E TPGS, 10%, 1% HPMC): >12.0 mg/mL | Solubility, Total Conc ([1]; Vitamin E TPGS, 10%): 11.5 mg/mL | Solubility, Total Conc ([1]; Water): >12.0 mg/mL | solubility ([1]; at pH of about 4.4): > 12 mg/mL | solubility ([1]; in simulated gastric fluid (SGF)): > 12 mg/mL | weight gain from 5% to 95% relative humidity [2]: about 4.6% | chemically and physically stable for at least about [3]: at least 2 weeks | chemically and physically stable for at least about (e.g. value) [3]: at least 1 months

CCNC(=O)Nc1nc2cc(-c3cncc(F)c3)cc(-c3ncccn3)c2[nH]1.CS(=O)(=O)O [crystalline1-ethyl-3-(5-(5-fluoropyridin-3-yl)-7-(pyrimidin-] [1-ethyl-3-(5-(5-fluoropyridin-3-yl)-7-(pyrimidin-2-yl)-1H-benzo[d]imidazol-2-yl)urea.monomesylate]
solubility ([1]; at pH of about 4.4): greater than 12 mg/ml | weight gain from 5% to 95% relative humidity [2]: 4.6% | remains chemically stable for at least ([3]; 40° C./75% relative humidity): at least 1 months | remains in substantially the same physical form for at least ([3]; 40° C./75% relative humidity): at least 1 months

CCNC(=O)Nc1nc2cc(-c3cncc(F)c3)cc(-c3ncccn3)c2[nH]1.CCS(=O)(=O)O [crystalline 1-ethyl-3-(5-(5-fluoropyridin-3-yl)-7-(pyrimidin] [1-ethyl-3-(5-(5-fluoropyridin-3-yl)-7-(pyrimidin-2-yl)-1H-benzo[d]imidazol-2-yl)urea.monoesylate]
solubility [1, 4]: greater than 150 mg/ml | remains chemically stable for at least about ([3]; 40° C./75% relative humidity): at least 2 weeks | remains in substantially the same physical form for at least ([3]; 40° C./75% relative humidity): at least 6 months | remains in substantially the same physical form for at least about ([3]; 40° C./75% relative humidity): at least 2 weeks
